Assay results: publication PMC5909127, “Optimization of a “bump-and-hole” approach to allele-selective BET bromodomain inhibition” (Chemical Science, 2018)

Key:
delta (DOP) (h) = delta (DOP) (h) (Homo sapiens, UniProt P41143); assay: CEREP ExpresSProfile; conditions: read-out: Mean % of control specific binding (±SD)
Source text: (§1) Receptor Reference Compound Mean % of control specific
Receptor & Ion-Channel Screening
CEREP ExpresSProfile panel

BRD2 BD2 WT = BRD2 BD2 WT (Homo sapiens, UniProt P25440); assay: ITC; format: binding
BRD4 BD1 L/V [1] = target: T1, BRD4 BD1 L/V (Homo sapiens, UniProt O60885, L94V); assay: competitive AlphaLISA; format: binding; conditions: total compound concentration
[2] = target: GFP-labelled L/V BRD4 in U2OS cells (Homo sapiens, UniProt O60885, L387V/L94V); assay: FRAP; conditions: 200 nM, 2 μM SAHA
V1a (h) = V1a (h) (Homo sapiens, UniProt P37288); assay: CEREP ExpresSProfile; conditions: read-out: Mean % of control specific binding (±SD)
[3] = tested on: Ca2+ channel (L, verapamil site); assay: CEREP ExpresSProfile; format: binding; conditions: 1 µM
BRD2 BD1 L/V = BRD2 BD1 L/V (Homo sapiens, UniProt P25440, L110V); assay: ITC; format: binding
BRD4 BD1 WT [4] = target: T2, BRD4 BD1 WT (Homo sapiens, UniProt O60885); assay: ITC; format: binding
alpha 2 (non-selective) = assay: CEREP ExpresSProfile; format: binding; conditions: 1 µM
[5] = tested on: L/V somatic BET bromodomains; assay: ITC; conditions: L/V BET bromodomains
5-HT3 (h) = 5-HT3 (h) (Homo sapiens, UniProt P46098); assay: CEREP ExpresSProfile; conditions: read-out: Mean % of control specific binding (±SD)
Source text: as §1
Receptor & Ion-Channel Screening
CEREP ExpresSProfile panel

EP4 (h) = EP4 (h) (Homo sapiens, UniProt P35408); assay: CEREP ExpresSProfile; conditions: read-out: Mean % of control specific binding (±SD)
D1 (h) = D1 (h) (Homo sapiens, UniProt P21728); assay: CEREP ExpresSProfile; conditions: read-out: Mean % of control specific binding (±SD)
BZD (central) = assay: CEREP ExpresSProfile; format: binding; conditions: 1 µM
BRD4 BD2 WT = BRD4 BD2 WT (Homo sapiens, UniProt O60885); assay: ITC; format: binding
BRD3 BD2 WT = BRD3 BD2 WT (Homo sapiens, UniProt Q15059); assay: ITC; format: binding
kappa (KOP) = kappa (KOP) (Rattus norvegicus, UniProt P34975); assay: CEREP ExpresSProfile; conditions: read-out: Mean % of control specific binding (±SD)
Source text: as §1
Receptor & Ion-Channel Screening
CEREP ExpresSProfile panel

MC4 (h) = MC4 (h) (Homo sapiens, UniProt P32245); assay: CEREP ExpresSProfile; conditions: read-out: Mean % of control specific binding (±SD)
Source text: as §1
Receptor & Ion-Channel Screening
CEREP ExpresSProfile panel

BRD4 BD2 L/V = BRD4 BD2 L/V (Homo sapiens, UniProt O60885, L387V); assay: ITC; format: binding
A1 (h) = A1 (h) (Homo sapiens, UniProt P30542); assay: CEREP ExpresSProfile; conditions: read-out: Mean % of control specific binding (±SD)
Source text: as §1
Receptor & Ion-Channel Screening
CEREP ExpresSProfile panel

B2 (h) = B2 (h) (Homo sapiens, UniProt P30411); assay: CEREP ExpresSProfile; conditions: read-out: Mean % of control specific binding (±SD)
BRD3 BD2 L/V = BRD3 BD2 L/V (Homo sapiens, UniProt Q15059, L345V); assay: ITC; format: binding
BRD3 BD1 WT = BRD3 BD1 WT (Homo sapiens, UniProt Q15059); assay: ITC; format: binding
BRD4 BD1 WT [6] = target: T2, BRD4 BD1 WT; assay: competitive AlphaLISA; format: binding; conditions: pIC50 BRD4 BD1 WT, separated enantiomers test; total compound concentration
dopamine transporter (h) = dopamine transporter (h) (Homo sapiens, UniProt Q01959); assay: CEREP ExpresSProfile; conditions: read-out: Mean % of control specific binding (±SD)
Source text: as §1
Receptor & Ion-Channel Screening
CEREP ExpresSProfile panel

5-HT2A (h) = 5-HT2A (h) (Homo sapiens, UniProt P28223); assay: CEREP ExpresSProfile; conditions: read-out: Mean % of control specific binding (±SD)
Source text: as §1
Receptor & Ion-Channel Screening
CEREP ExpresSProfile panel

Y1 (h) = Y1 (h) (Homo sapiens, UniProt P25929); assay: CEREP ExpresSProfile; conditions: read-out: Mean % of control specific binding (±SD)
[7] = target: GFP-labelled WT BRD4 in U2OS cells (Homo sapiens, UniProt O60885); assay: FRAP; conditions: 200 nM, 2 μM SAHA
SKCa channel = assay: CEREP ExpresSProfile; format: binding; conditions: 1 µM
BRD2 BD1 WT = BRD2 BD1 WT (Homo sapiens, UniProt P25440); assay: ITC; format: binding
BRD2 BD2 L/V = BRD2 BD2 L/V (Homo sapiens, UniProt P25440, L383V); assay: ITC; format: binding
BRD3 BD1 L/V = BRD3 BD1 L/V (Homo sapiens, UniProt Q15059, L70V); assay: ITC; format: binding
BRD4 BD1 L/V [8] = target: T1, BRD4 BD1 L/V; assay: ITC; format: binding; conditions: total compound concentration
alpha 1 (non-selective) = assay: CEREP ExpresSProfile; format: binding; conditions: 1 µM

Chain of B2 (h) (P30411 whole entry): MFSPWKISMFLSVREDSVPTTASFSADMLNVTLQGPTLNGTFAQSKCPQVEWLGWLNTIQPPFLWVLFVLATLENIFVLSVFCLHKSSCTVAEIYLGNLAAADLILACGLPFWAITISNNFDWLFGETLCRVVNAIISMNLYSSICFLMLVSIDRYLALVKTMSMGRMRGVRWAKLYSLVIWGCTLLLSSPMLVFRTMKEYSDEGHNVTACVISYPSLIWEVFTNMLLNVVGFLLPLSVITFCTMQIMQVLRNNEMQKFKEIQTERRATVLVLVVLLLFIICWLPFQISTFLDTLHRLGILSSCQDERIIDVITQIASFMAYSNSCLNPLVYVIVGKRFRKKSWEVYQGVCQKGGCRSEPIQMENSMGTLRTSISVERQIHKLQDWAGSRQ
Chain of BRD2 BD2 WT (P25440 344-455): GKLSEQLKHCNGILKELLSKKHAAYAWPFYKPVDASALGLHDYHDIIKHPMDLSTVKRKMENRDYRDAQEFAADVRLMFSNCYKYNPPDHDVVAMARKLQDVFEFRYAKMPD
Chain of delta (DOP) (h) (P41143 whole entry): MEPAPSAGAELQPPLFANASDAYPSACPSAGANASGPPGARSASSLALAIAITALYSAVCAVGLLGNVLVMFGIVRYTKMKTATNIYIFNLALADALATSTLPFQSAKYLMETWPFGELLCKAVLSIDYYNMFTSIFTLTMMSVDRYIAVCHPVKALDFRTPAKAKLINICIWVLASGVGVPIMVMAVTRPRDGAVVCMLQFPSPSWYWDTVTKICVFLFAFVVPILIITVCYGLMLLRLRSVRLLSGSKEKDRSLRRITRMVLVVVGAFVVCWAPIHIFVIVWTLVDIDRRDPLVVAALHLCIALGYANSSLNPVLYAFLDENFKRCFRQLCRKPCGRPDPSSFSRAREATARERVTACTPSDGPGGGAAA
Chain of BRD3 BD2 WT (Q15059 306-416): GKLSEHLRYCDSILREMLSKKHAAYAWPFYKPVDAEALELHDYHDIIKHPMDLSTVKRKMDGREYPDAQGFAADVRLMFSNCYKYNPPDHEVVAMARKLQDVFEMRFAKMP
Chain of 5-HT3 (h) (P46098 24-478): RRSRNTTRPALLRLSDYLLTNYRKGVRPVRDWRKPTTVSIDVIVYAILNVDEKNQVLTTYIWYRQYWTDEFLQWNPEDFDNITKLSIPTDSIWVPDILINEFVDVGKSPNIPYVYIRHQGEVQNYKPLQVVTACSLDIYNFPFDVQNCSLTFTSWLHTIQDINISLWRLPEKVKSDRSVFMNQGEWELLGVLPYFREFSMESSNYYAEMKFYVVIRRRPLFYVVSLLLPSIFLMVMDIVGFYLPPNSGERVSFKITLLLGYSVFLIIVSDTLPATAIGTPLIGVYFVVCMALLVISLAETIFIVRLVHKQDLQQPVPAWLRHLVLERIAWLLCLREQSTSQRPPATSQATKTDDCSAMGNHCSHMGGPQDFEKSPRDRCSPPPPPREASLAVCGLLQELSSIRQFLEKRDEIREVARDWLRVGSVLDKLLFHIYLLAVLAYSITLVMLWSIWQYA
Chain of kappa (KOP) (P34975 whole entry): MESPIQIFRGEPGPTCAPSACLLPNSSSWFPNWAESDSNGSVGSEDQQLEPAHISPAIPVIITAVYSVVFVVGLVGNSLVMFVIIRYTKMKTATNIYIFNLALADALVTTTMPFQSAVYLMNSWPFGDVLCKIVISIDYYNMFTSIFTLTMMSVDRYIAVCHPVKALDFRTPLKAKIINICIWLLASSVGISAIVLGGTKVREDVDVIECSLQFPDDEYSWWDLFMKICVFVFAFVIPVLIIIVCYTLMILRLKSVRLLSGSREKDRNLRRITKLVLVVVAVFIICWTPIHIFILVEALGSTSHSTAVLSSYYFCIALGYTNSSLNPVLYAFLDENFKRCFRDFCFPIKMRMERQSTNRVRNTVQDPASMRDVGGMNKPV
Chain of 5-HT2A (h) (P28223 whole entry): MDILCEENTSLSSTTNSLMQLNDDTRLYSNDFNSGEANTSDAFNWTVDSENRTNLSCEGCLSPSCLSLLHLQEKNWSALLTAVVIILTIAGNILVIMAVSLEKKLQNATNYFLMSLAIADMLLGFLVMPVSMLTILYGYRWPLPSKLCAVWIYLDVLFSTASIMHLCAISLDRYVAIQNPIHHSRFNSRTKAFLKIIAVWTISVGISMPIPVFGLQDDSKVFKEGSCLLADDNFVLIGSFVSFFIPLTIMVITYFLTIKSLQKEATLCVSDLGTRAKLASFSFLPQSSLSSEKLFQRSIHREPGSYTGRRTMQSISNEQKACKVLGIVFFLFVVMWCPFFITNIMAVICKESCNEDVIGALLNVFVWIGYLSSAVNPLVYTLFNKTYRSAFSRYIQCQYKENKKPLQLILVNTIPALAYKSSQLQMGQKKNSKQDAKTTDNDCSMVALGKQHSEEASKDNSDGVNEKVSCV
Chain of BRD3 BD1 WT (Q15059 24-144): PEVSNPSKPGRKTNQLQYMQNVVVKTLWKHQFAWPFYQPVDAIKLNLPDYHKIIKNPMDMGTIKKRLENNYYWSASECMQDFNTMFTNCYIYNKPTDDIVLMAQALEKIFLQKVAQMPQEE
Chain of MC4 (h) (P32245 whole entry): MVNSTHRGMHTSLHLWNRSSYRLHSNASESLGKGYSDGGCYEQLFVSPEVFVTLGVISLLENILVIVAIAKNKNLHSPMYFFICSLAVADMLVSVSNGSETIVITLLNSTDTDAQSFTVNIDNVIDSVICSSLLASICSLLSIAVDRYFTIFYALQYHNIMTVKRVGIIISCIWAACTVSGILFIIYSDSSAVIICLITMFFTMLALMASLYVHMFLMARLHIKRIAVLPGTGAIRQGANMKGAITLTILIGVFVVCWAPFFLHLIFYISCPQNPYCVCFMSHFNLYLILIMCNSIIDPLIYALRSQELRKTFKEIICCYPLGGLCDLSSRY
Chain of V1a (h) (P37288 whole entry): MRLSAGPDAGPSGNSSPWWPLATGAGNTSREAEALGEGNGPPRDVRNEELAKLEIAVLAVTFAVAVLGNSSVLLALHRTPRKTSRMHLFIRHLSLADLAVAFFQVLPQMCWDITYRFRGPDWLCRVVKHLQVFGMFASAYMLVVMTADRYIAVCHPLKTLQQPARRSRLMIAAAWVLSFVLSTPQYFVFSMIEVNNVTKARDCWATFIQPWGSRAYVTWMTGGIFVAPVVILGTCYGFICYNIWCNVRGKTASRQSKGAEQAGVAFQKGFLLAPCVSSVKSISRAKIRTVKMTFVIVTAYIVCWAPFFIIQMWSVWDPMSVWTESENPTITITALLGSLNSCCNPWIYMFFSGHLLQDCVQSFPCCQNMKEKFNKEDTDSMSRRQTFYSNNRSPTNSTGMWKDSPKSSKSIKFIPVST
Chain of BRD3 BD2 L/V (Q15059 306-416 L345V limits assumed): as the sequence (Q15059 306-416) above, with L40V counted along it
Chain of Y1 (h) (P25929 whole entry): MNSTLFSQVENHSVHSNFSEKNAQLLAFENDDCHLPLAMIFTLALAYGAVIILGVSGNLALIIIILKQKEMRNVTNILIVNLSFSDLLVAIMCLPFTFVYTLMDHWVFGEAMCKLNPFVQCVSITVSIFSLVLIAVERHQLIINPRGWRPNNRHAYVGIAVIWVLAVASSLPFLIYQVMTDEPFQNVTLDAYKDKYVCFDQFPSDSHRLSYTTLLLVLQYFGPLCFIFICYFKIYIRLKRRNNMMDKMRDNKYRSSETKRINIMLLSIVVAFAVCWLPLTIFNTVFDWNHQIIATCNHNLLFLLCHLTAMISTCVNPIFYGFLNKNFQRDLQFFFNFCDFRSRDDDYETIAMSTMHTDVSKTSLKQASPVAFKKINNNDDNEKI
Chain of dopamine transporter (h) (Q01959 whole entry): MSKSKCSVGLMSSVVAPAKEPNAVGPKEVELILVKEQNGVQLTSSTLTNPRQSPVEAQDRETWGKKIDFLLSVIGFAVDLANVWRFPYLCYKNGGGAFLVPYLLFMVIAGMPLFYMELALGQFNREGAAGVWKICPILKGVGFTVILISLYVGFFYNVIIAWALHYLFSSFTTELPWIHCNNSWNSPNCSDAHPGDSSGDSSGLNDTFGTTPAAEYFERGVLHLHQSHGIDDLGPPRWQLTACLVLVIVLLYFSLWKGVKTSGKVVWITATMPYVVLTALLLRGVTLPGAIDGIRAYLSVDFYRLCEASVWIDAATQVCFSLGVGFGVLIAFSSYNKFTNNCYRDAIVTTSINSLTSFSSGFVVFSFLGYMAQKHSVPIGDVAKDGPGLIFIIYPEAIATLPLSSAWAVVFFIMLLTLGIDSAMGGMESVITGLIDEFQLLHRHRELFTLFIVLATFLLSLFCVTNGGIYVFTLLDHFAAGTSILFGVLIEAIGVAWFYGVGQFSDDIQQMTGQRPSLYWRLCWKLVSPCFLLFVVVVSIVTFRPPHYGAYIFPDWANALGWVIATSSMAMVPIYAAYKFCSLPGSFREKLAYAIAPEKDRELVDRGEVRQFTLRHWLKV
Chain of BRD2 BD1 L/V (P25440 71-176 L110V limits assumed): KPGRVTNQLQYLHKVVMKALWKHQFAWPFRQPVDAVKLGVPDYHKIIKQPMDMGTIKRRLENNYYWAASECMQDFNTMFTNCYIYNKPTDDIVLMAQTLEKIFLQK
Chain of BRD2 BD2 L/V (P25440 344-455 L383V): as the sequence (P25440 344-455) above, with L40V counted along it
Chain of BRD2 BD1 WT (P25440 71-176): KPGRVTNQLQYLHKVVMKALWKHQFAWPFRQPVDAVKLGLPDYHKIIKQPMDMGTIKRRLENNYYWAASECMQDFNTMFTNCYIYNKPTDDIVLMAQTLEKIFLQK
Chain of BRD3 BD1 L/V (Q15059 24-144 L70V limits assumed): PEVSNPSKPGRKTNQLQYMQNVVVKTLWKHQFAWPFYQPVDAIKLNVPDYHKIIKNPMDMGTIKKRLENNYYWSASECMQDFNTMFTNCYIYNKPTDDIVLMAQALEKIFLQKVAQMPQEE

SMILES: COC(=O)[C@H](C)[C@@H]1N=C(c2ccc(Cl)cc2)c2ccc(OC)cc2-n2c(C)nnc21 [(2R,3S)-7]
- remaining activity at 1 µM (delta (DOP) (h)): 100%
- Kd (BRD2 BD2 WT): > 60000 nM
- ΔpIC50 BRD4 BD1 (BRD4 BD1 L/V [1]; L/V minus WT): 1.7
- IC50 (BRD4 BD1 L/V [1]; pIC50 BRD4 BD1 L/V, separated enantiomers test): 158 nM
- displacement of L/V BRD4 (FRAP) [2]: almost complete displacement
- remaining activity at 1 µM (V1a (h)): 102%
- Mean % of control specific binding (±SD) [3]: 108 (6) %
- Kd (BRD2 BD1 L/V): 210 nM
- Kd (BRD4 BD1 WT [4]): 58000 ± 4000 nM
- ΔH BRD4 BD1 WT (BRD4 BD1 WT [4]; ITC, total compound concentration): -13.3 ± 0.5 kcal/mol
- Mean % of control specific binding (±SD) (alpha 2 (non-selective)): 98 (0) %
- potency [5]: ~200 nM
- remaining activity at 1 µM (5-HT3 (h)): 96%
- remaining activity at 1 µM (EP4 (h)): 93%
- remaining activity at 1 µM (D1 (h)): 116%
- Mean % of control specific binding (±SD) (BZD (central)): 105 (10) %
- Kd (BRD4 BD2 WT): 29000 nM
- Kd (BRD3 BD2 WT): 24000 nM
- remaining activity at 1 µM (kappa (KOP)): 96%
- remaining activity at 1 µM (MC4 (h)): 89%
- Kd (BRD4 BD2 L/V): 300 nM
- remaining activity at 1 µM (A1 (h)): 100%
- remaining activity at 1 µM (B2 (h)): 98%
- Kd (BRD3 BD2 L/V): 310 nM
- Kd (BRD3 BD1 WT): 7500 nM
- IC50 (BRD4 BD1 WT [6]): 7940 nM
- remaining activity at 1 µM (dopamine transporter (h)): 84%
- remaining activity at 1 µM (5-HT2A (h)): 100%
- remaining activity at 1 µM (Y1 (h)): 122%
- blockade of WT BRD4 (FRAP) [7]: no statistically significant blockade
- Mean % of control specific binding (±SD) (SKCa channel): 103 (10) %
- Kd (BRD2 BD1 WT): 43000 nM
- Kd (BRD2 BD2 L/V): 200 nM
- Kd (BRD3 BD1 L/V): 90 nM
- ΔH BRD4 BD1 L/V (BRD4 BD1 L/V [8]; ITC): -7.9 ± 0.1 kcal/mol
- Kd (BRD4 BD1 L/V [8]; Kd BRD4 BD1 L/V, ITC of separated enantiomers and racemates): 170 ± 20 nM
- Mean % of control specific binding (±SD) (alpha 1 (non-selective)): 99 (12) %
